Measured values reported in PubChem BioAssay AID248 (DTP/NCI, 2004).
Several values for one entry are separate records, joined by “and”; a condition that tells them apart may be missing. Equal entries are not always repeated. Toxic doses and inconclusive results are not listed. No stated cut-off is given here; in the data, active means T/C of 150% or more; inactive means T/C below 125%.

Test system: L1210 leukemia ip in BDF1 mice, survival T/C
Assay: NCI In Vivo Anticancer Drug Screen. Data for tumor model L1210 Leukemia (intraperitoneal) in B6D2F1 (BDF1) mice
Conditions: endpoint: mean survival time, higher = longer survival
Outline: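 Tumor cells were implanted, animals were treated, and survival was followed. The result divides the treated measurement by the vehicle-control measurement.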

[1] = dose: 100.0 mg/kg/injection, schedule: Q04DX003 (ip), vehicle: Klucel (hydroxypropylcellulose) (HPC)
[2] = dose: 200.0 mg/kg/injection, schedule: Q04DX003 (ip), vehicle: Klucel (hydroxypropylcellulose) (HPC)
[3] = dose: 100.0 mg/kg/injection, schedule: Q01DX001 (ip), vehicle: saline
[4] = dose: 200.0 mg/kg/injection, schedule: Q01DX001 (ip), vehicle: saline
[5] = dose: 400.0 mg/kg/injection, schedule: Q01DX001 (ip), vehicle: saline
[6] = dose: 100.0 mg/kg/injection, schedule: Q04DX003 (ip), vehicle: saline
[7] = dose: 200.0 mg/kg/injection, schedule: Q04DX003 (ip), vehicle: saline
[8] = dose: 400.0 mg/kg/injection, schedule: Q04DX003 (ip), vehicle: saline
[9] = dose: 50.0 mg/kg/injection, schedule: Q01DX001 (ip), vehicle: carboxymethylcellulose (CMC)
[10] = dose: 100.0 mg/kg/injection, schedule: Q01DX001 (ip), vehicle: carboxymethylcellulose (CMC)
[11] = dose: 400.0 mg/kg/injection, schedule: Q01DX001 (ip), vehicle: carboxymethylcellulose (CMC)
[12] = dose: 50.0 mg/kg/injection, schedule: Q01DX009 (ip), vehicle: Klucel (hydroxypropylcellulose) (HPC)
[13] = dose: 100.0 mg/kg/injection, schedule: Q01DX009 (ip), vehicle: Klucel (hydroxypropylcellulose) (HPC)
[14] = dose: 25.0 mg/kg/injection, schedule: Q01DX009 (ip), vehicle: Klucel (hydroxypropylcellulose) (HPC)
[15] = dose: 100.0 mg/kg/injection, schedule: Q01DX009 (ip), vehicle: saline
[16] = dose: 200.0 mg/kg/injection, schedule: Q01DX009 (ip), vehicle: saline
[17] = dose: 400.0 mg/kg/injection, schedule: Q01DX009 (ip), vehicle: saline

Measured: T/C

CN(CCCl)c1ccc(C2N(Cc3ccccc3)c3ccccc3N2Cc2ccccc2)cc1
inactive: dose: 6.2 mg/kg/injection, schedule: Q01DX001 (ip), vehicle: carboxymethylcellulose (CMC) 94 % of control | dose: 12.5 mg/kg/injection, schedule: Q01DX001 (ip), vehicle: carboxymethylcellulose (CMC) 103 % of control

O=[N+]([O-])c1ccc(N2CCOCC2)cc1
inactive: [1] 95 % of control | [2] 100 % of control | dose: 400.0 mg/kg/injection, schedule: Q04DX003 (ip), vehicle: Klucel (hydroxypropylcellulose) (HPC) 105 % of control

O=C(CCl)Nc1ccccc1S(=O)(=O)F
inactive: dose: 18.75 mg/kg/injection, schedule: Q01DX009 (ip), vehicle: carboxymethylcellulose (CMC) 91 % of control | dose: 37.5 mg/kg/injection, schedule: Q01DX009 (ip), vehicle: carboxymethylcellulose (CMC) 92 % of control | dose: 75.0 mg/kg/injection, schedule: Q01DX001 (ip), vehicle: carboxymethylcellulose (CMC) 98 % of control | dose: 75.0 mg/kg/injection, schedule: Q04DX003 (ip), vehicle: carboxymethylcellulose (CMC) 94 % of control | dose: 150.0 mg/kg/injection, schedule: Q01DX001 (ip), vehicle: carboxymethylcellulose (CMC) 93 % of control | dose: 150.0 mg/kg/injection, schedule: Q04DX003 (ip), vehicle: carboxymethylcellulose (CMC) 88 % of control | dose: 300.0 mg/kg/injection, schedule: Q01DX001 (ip), vehicle: carboxymethylcellulose (CMC) 97 % of control

COC1OC2COCOC2C(OC(C)=O)C1OC(C)=O (stereo not drawn)
inactive: dose: 50.0 mg/kg/injection, schedule: Q04DX002 (ip), vehicle: Klucel (hydroxypropylcellulose) (HPC) 104 % of control | dose: 100.0 mg/kg/injection, schedule: Q04DX002 (ip), vehicle: Klucel (hydroxypropylcellulose) (HPC) 103 % of control and 100 % of control | dose: 200.0 mg/kg/injection, schedule: Q04DX002 (ip), vehicle: Klucel (hydroxypropylcellulose) (HPC) 95 % of control and 104 % of control and 92 % of control | dose: 400.0 mg/kg/injection, schedule: Q04DX002 (ip), vehicle: Klucel (hydroxypropylcellulose) (HPC) 103 % of control and 113 % of control

C1CCC2(CC1)SCCCS2
inactive: [3] 102 % of control | [4] 113 % of control | [5] 110 % of control

Oc1ccccc1N=Cc1ccccc1
inactive: [3] 94 % of control | [4] 100 % of control | [5] 103 % of control

CCOc1ccc(/C=N/Nc2c3ccccc3nc3ccccc23)cc1OCC
inactive: [3] 92 % of control | [4] 95 % of control

CCOC(Nc1cc(Cl)ccc1Cl)C(=O)c1ccccc1 (stereo not drawn)
inactive: [3] 97 % of control | [4] 100 % of control | [5] 96 % of control

CCCCCCCC(=O)/C=C/c1ccc(C)cc1
inactive: [6] 105 % of control | [7] 103 % of control | [8] 92 % of control

c1ccc(OC2COC(Oc3ccccc3)CO2)cc1 (stereo not drawn)
inactive: [3] 97 % of control | dose: 100.0 mg/kg/injection, schedule: Q01DX009 (ip), vehicle: acetone 97 % of control | [6] 103 % of control | [4] 87 % of control | dose: 200.0 mg/kg/injection, schedule: Q01DX009 (ip), vehicle: acetone 92 % of control | [7] 97 % of control | [5] 90 % of control | dose: 400.0 mg/kg/injection, schedule: Q01DX009 (ip), vehicle: acetone 87 % of control | [8] 95 % of control

O=C1c2cccnc2C(=O)c2c(O)ccc(O)c21
inactive: [9] 100 % of control | [10] 108 % of control | dose: 200.0 mg/kg/injection, schedule: Q01DX001 (ip), vehicle: carboxymethylcellulose (CMC) 100 % of control | [11] 108 % of control

CC(C)=CCN(CC=C(C)C)CCC(O)(Cc1ccccc1)c1ccccc1 (stereo not drawn)
inactive: [12] 88 % of control | [13] 109 % of control | [1] 97 % of control | dose: 200.0 mg/kg/injection, schedule: Q01DX009 (ip), vehicle: Klucel (hydroxypropylcellulose) (HPC) 90 % of control | [2] 95 % of control

O=C(Nc1ccccc1)Oc1c(Cl)cc(Cl)c(Cl)c1[N+](=O)[O-]
inactive: [14] 100 % of control | [12] 93 % of control | [13] 91 % of control

CCOc1ccn(CC(=O)Nc2nccs2)c(=O)n1
inactive: [15] 100 % of control | [6] 98 % of control | [16] 103 % of control | [7] 96 % of control | [17] 105 % of control | [8] 100 % of control

COC(=N)c1ccc(O)c(C)c1
inactive: [6] 99 % of control | [7] 94 % of control | [8] 88 % of control

CCC(/C=N\NC(=O)CCCC(=O)N/N=C/C(CC)CC)CC
inactive: [9] 90 % of control | [10] 90 % of control | [11] 90 % of control

O=C(O)CCC(=O)O
inactive: dose: 10.0 mg/kg/injection, schedule: Q01DX009 (ip), vehicle: saline 103 % of control and 101 % of control | dose: 20.0 mg/kg/injection, schedule: Q01DX009 (ip), vehicle: saline 100 % of control and 103 % of control | dose: 31.25 mg/kg/injection, schedule: Q01DX015 (ip), vehicle: water 96 % of control | dose: 40.0 mg/kg/injection, schedule: Q01DX009 (ip), vehicle: saline 97 % of control | dose: 62.5 mg/kg/injection, schedule: Q01DX015 (ip), vehicle: water 89 % of control | dose: 62.5 mg/kg/injection, schedule: Q01DX Z (ip), vehicle: water 95 % of control and 91 % of control | dose: 80.0 mg/kg/injection, schedule: Q01DX009 (ip), vehicle: saline 97 % of control and 99 % of control | [3] 96 % of control | [15] 97 % of control and 102 % of control and 92 % of control | dose: 125.0 mg/kg/injection, schedule: Q01DX015 (ip), vehicle: water 96 % of control and 87 % of control | dose: 125.0 mg/kg/injection, schedule: Q01DX Z (ip), vehicle: water 91 % of control and 88 % of control | dose: 160.0 mg/kg/injection, schedule: Q01DX009 (ip), vehicle: saline 93 % of control and 99 % of control | [4] 102 % of control | [16] 94 % of control and 97 % of control and 105 % of control | dose: 250.0 mg/kg/injection, schedule: Q01DX001 (ip), vehicle: water 100 % of control and 91 % of control | dose: 250.0 mg/kg/injection, schedule: Q01DX015 (ip), vehicle: water 93 % of control | dose: 250.0 mg/kg/injection, schedule: Q01DX Z (ip), vehicle: water 94 % of control and 100 % of control | [5] 107 % of control | [17] 105 % of control | dose: 500.0 mg/kg/injection, schedule: Q01DX001 (ip), vehicle: water 100 % of control | dose: 500.0 mg/kg/injection, schedule: Q01DX Z (ip), vehicle: water 94 % of control and 101 % of control

CC(=O)NC(C)(C)CC(C)(C)C
inactive: dose: 12.5 mg/kg/injection, schedule: Q01DX009 (ip), vehicle: Klucel (hydroxypropylcellulose) (HPC) 99 % of control | dose: 12.5 mg/kg/injection, schedule: Q04DX003 (ip), vehicle: Klucel (hydroxypropylcellulose) (HPC) 98 % of control | dose: 25.0 mg/kg/injection, schedule: Q01DX001 (ip), vehicle: saline with Tween-80 98 % of control | [14] 101 % of control | dose: 25.0 mg/kg/injection, schedule: Q04DX003 (ip), vehicle: Klucel (hydroxypropylcellulose) (HPC) 96 % of control | dose: 50.0 mg/kg/injection, schedule: Q01DX001 (ip), vehicle: saline with Tween-80 103 % of control | dose: 50.0 mg/kg/injection, schedule: Q04DX003 (ip), vehicle: Klucel (hydroxypropylcellulose) (HPC) 93 % of control | dose: 100.0 mg/kg/injection, schedule: Q01DX001 (ip), vehicle: saline with Tween-80 105 % of control and 119 % of control

COc1ccc(-n2c(O)c(N=Nc3ccccc3C)c(=O)n(-c3ccccc3)c2=S)cc1
inactive: dose: 37.5 mg/kg/injection, schedule: Q01DX001 (ip), vehicle: Klucel (hydroxypropylcellulose) (HPC) 103 % of control | dose: 75.0 mg/kg/injection, schedule: Q01DX001 (ip), vehicle: Klucel (hydroxypropylcellulose) (HPC) 97 % of control | dose: 150.0 mg/kg/injection, schedule: Q01DX001 (ip), vehicle: Klucel (hydroxypropylcellulose) (HPC) 94 % of control

O=c1cc[nH]c2n[nH]nc12
inactive: dose: 100.0 mg/kg/injection, schedule: Q01DX001 (ip), vehicle: Klucel (hydroxypropylcellulose) (HPC) 94 % of control | dose: 200.0 mg/kg/injection, schedule: Q01DX001 (ip), vehicle: Klucel (hydroxypropylcellulose) (HPC) 94 % of control | dose: 400.0 mg/kg/injection, schedule: Q01DX001 (ip), vehicle: Klucel (hydroxypropylcellulose) (HPC) 96 % of control
